Patent US9266834B2, “1, 4-disubstituted 3-cyano-pyridone derivatives and their use as positive allosteric modulators of MGLUR2-receptors” (JANSSEN PHARMACEUTICALS, INC., priority 2006, dated 2016)

What was measured:
human mGluR2 receptor = biological target: T1, human mGluR2 receptor (Homo sapiens, UniProt Q14416); assay: [35S]GTPγS binding assay (GTPγS-PAM): positive allosteric modulation in presence of glutamate at EC25, membranes from transfected CHO cells; assay type: biochemical; conditions: in presence of mGluR2 agonist glutamate at predetermined EC25 concentration, averages of duplicate values of 11-concentration response curves, read-out: GTPgS - hR2 PAM pEC50 (converted)
T1 construct: expressed in transfected cells; host or cells: CHO cells (membrane preparation)
T1 sequence (Q14416 19-872): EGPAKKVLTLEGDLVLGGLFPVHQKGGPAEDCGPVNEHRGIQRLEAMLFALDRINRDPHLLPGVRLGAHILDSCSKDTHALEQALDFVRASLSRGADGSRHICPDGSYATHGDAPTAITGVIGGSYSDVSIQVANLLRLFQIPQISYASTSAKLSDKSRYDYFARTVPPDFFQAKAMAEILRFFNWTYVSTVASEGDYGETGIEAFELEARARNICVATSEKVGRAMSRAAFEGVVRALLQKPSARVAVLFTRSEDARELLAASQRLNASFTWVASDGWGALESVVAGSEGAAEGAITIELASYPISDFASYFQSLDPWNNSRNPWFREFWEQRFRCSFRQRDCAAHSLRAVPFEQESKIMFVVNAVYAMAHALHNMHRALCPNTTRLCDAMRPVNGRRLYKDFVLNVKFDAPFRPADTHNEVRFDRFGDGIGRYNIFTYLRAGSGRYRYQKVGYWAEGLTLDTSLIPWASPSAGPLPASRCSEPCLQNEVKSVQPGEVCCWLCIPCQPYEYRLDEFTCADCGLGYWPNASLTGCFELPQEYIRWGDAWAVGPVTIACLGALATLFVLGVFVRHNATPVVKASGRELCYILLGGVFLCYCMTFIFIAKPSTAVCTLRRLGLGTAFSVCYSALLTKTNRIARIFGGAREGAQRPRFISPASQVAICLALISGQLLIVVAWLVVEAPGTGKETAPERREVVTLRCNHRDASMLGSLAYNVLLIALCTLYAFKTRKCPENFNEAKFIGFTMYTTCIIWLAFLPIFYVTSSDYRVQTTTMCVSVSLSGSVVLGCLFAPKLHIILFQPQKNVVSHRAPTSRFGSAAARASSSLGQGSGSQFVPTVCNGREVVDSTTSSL
Method in brief: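 Potentiation was read as filter-retained [35S]GTPγS (0.1 nM final, 30 min, 30° C.) after a 30 min, 30° C. preincubation of human mGluR2 CHO membranes (15 μg/well) with EC25 glutamate and 11 modulator concentrations spanning 0.3 nM-50 μM. The buffer was 50 mM HEPES pH 7.4, NaCl, MgCl2, 50 μM GDP and saponin. Cold 10 μM GTP defined nonspecific binding; data were fitted by a four-parameter logistic.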

Compound | EC50 (human mGluR2 receptor) [nM] | melting point [°C]
CC(C)CCn1ccc(-c2ccc(OC(C)C)cc2)c(C#N)c1=O [1-111] | 316 | 129
COc1ccc(-c2ccn(CCC(C)C)c(=O)c2C#N)cc1Cl [1-112] | 316 | 149
COc1ccc(-c2ccn(CCC(C)C)c(=O)c2C#N)c(F)c1 [1-113, 3-cyano-4-(2-fluoro-4-methoxyphenyl)-1-(3-methylbutyl)pyridine-2(1H)-one] | 631 | 65
COc1ccc(-c2ccn(CCC(C)C)c(=O)c2C#N)cc1F [1-114, 3-cyano-4-(3-fluoro-4-methoxyphenyl)-1-(3-methylbutyl)pyridine-2(1)-one] | 1000 | 133
CCC(C)Oc1ccc(-c2ccn(CCC(C)C)c(=O)c2C#N)cc1F (stereo not drawn) [1-115] | 100 | 154
CC(C)CCn1ccc(-c2ccc(OC(C)C)c(Cl)c2)c(C#N)c1=O [1-117] | 63.1 | 166
CC(C)CCn1ccc(-c2ccc(OC(F)(F)F)cc2)c(C#N)c1=O [1-120] | 501 | 122
CC(C)CCn1ccc(-c2ccc(OCC(F)F)c(Cl)c2)c(C#N)c1=O [1-122] | 1000 | 131
CC(C)CCn1ccc(-c2ccc(OCC(F)(F)F)c(Cl)c2)c(C#N)c1=O [1-123] | 158 | 189
CC(=O)NCCOc1ccc(-c2ccn(CCC(C)C)c(=O)c2C#N)cc1 [1-128] | 3160 | 107
CC(C)CCn1ccc(-c2ccc(OCC#N)cc2)c(C#N)c1=O [1-131] | 2510 | 132
CC(C)CCn1ccc(-c2ccc(OCC3CC3)c(Cl)c2)c(C#N)c1=O [1-134] | 79.4 | 294
COc1cccc(Oc2ccc(-c3ccn(CCC(C)C)c(=O)c3C#N)cc2)c1 [1-143] | 79.4 | 118
COc1cccc(COc2ccc(-c3ccn(CCC(C)C)c(=O)c3C#N)cc2)c1 [1-144] | 63.1 | 100
COc1ccc(COc2ccc(-c3ccn(CCC(C)C)c(=O)c3C#N)cc2)cc1 [1-145] | 39.8 | 212
CC(C)CCn1ccc(-c2ccc(OCc3cccc(F)c3)cc2)c(C#N)c1=O [1-146] | 63.1 | 139
CC(C)CCn1ccc(-c2ccc(OCc3ccc(F)cc3)cc2)c(C#N)c1=O [1-147] | 79.4 | 146
CC(C)CCn1ccc(-c2ccc(OCc3ccccc3)c(F)c2)c(C#N)c1=O [1-148] | 50.1 | 173
CC(C)CCn1ccc(-c2ccc(OCc3cccc(Cl)c3)cc2)c(C#N)c1=O [1-149] | 50.1 | 120
CC(C)CCn1ccc(-c2ccc(OCc3ccccc3)c(Cl)c2)c(C#N)c1=O [1-150] | 79.4 | 177
CC(C)CCn1ccc(-c2ccc(OCc3cccc(C#N)c3)cc2)c(C#N)c1=O [1-151] | 39.8 | 154
CC(C)CCn1ccc(-c2ccc(Oc3ccc(C#N)cc3)cc2)c(C#N)c1=O [1-152] | 100 | 193

Compound | EC50 (human mGluR2 receptor) [nM] | melting point [°C]
CC(C)CCn1ccc(-c2ccc(OCc3ccc(C#N)cc3)cc2)c(C#N)c1=O [1-153] | 50.1 | 171
CC(C)CCn1ccc(-c2ccc(Oc3cccnc3)cc2)c(C#N)c1=O [1-155] | 501 | 132
CC(C)CCn1ccc(-c2ccc(Oc3ccncc3)cc2)c(C#N)c1=O [1-156] | 501 | 139
CC(C)CCn1ccc(-c2ccc(OCc3ccccn3)cc2)c(C#N)c1=O [1-157] | 398 | 162
CC(C)CCn1ccc(-c2ccc(OCc3cccnc3)cc2)c(C#N)c1=O [1-158] | 501 | 142
CC(C)CCn1ccc(-c2ccc(OCc3ccncc3)cc2)c(C#N)c1=O [1-159] | 501 | 171
CC(C)CCn1ccc(-c2ccc(OCc3ccncc3)cc2F)c(C#N)c1=O [1-162] | 398 | 156
CC(C)CCn1ccc(-c2ccc(OCc3ccc(C(F)(F)F)nc3)cc2)c(C#N)c1=O [1-163] | 79.4 | 202
CC(C)CCn1ccc(-c2ccc(OCc3ccc(Cl)nc3)cc2)c(C#N)c1=O [1-164] | 158 | 165
Cc1nc(COc2ccc(-c3ccn(CCC(C)C)c(=O)c3C#N)cc2)cs1 [1-169] | 501 | 144
CNc1ccc(-c2ccn(CCC(C)C)c(=O)c2C#N)cc1 [1-171] | 501 | 189
CC(C)CCn1ccc(-c2ccc(N(C)C)cc2)c(C#N)c1=O [1-172] | 126 | 137
CC(C)CCn1ccc(-c2ccc(CN(C)C)cc2)c(C#N)c1=O [1-173] | 6310 | 130
CC(=O)Nc1ccc(-c2ccn(CCC(C)C)c(=O)c2C#N)cc1 [1-176] | 5010 | 198
CC(=O)N(C)Cc1ccc(-c2ccn(CCC(C)C)c(=O)c2C#N)cc1 [1-177] | 3980 | 112
CC(=O)NCc1ccc(-c2ccn(CCC(C)C)c(=O)c2C#N)cc1 [1-179, 4-(4-(N-acetylmethyl)phenyl)-3-cyano-1-(3-methylbutyl)pyridine-2(1H)-one] | 3160 | 144
CC(C)CCn1ccc(-c2ccc(NCC#N)cc2)c(C#N)c1=O [1-186] | 794 | 269
CC(C)CCn1ccc(-c2ccc(NCCC3(C)OCCO3)cc2)c(C#N)c1=O [1-192] | 501 | 119
CC(C)CCn1ccc(-c2ccc(NCc3cccc(F)c3)cc2)c(C#N)c1=O [1-199] | 63.1 | 136
CC(C)CCn1ccc(-c2ccc(NCc3ccc(F)cc3)cc2)c(C#N)c1=O [1-200] | 79.4 | 162
CC(C)CCn1ccc(-c2ccc(NCc3cccc(Cl)c3)cc2)c(C#N)c1=O [1-202] | 31.6 | 146
COc1ccc(CNc2ccc(-c3ccn(CCC(C)C)c(=O)c3C#N)cc2)cc1 [1-203] | 316 | 173

Compound | EC50 (human mGluR2 receptor) [nM] | melting point [°C]
CC(C)CCn1ccc(-c2ccc(NCc3cccc(C#N)c3)cc2)c(C#N)c1=O [1-204] | 25.1 | 157
CC(C)CCn1ccc(-c2ccc(NCc3ccc(C#N)cc3)cc2)c(C#N)c1=O [1-206] | 50.1 | 209
CC(C)CCn1ccc(-c2ccc(NCc3ccncc3)cc2)c(C#N)c1=O [1-210] | 1000 | 73
CC(C)CCn1ccc(-c2ccc(CN(C)Cc3ccncc3)cc2)c(C#N)c1=O [1-211] | 631 | 142
CC(C)CCn1ccc(-c2ccc(CN(C)Cc3ccccn3)cc2)c(C#N)c1=O [1-212] | 1000 | 294
CC(C)CCn1ccc(-c2cccc(NS(C)(=O)=O)c2)c(C#N)c1=O [1-215] | 3160 | 70
CC(C)CCn1ccc(-c2ccc(N3CCC(O)CC3)cc2)c(C#N)c1=O [1-220] | 1260 | 213
CC(C)CCn1ccc(-c2ccc(N3CCOCC3)cc2)c(C#N)c1=O [1-223, 3-cyano-4-(4-(N-morpholyl)phenyl)-1-(3-methylbutyl)pyridine-2(1H)-one] | 2000 | 171
COc1cc(-c2ccn(CCC(C)C)c(=O)c2C#N)ccc1N1CCOCC1 [1-225] | 2000 | 151
CC(C)CCn1ccc(-c2ccc(N3CCOCC3)c(Br)c2)c(C#N)c1=O [1-226] | 126 | 118
CC(C)CCn1ccc(-c2ccc(N3CC(C)OC(C)C3)cc2)c(C#N)c1=O (stereo not drawn) [1-227] | 501 | 162
CC(C)CCn1ccc(-c2ccc(N3CCOc4ccccc43)cc2)c(C#N)c1=O [1-228] | 79.4 | 148
CC(=O)N1CCN(c2cccc(-c3ccn(CCC(C)C)c(=O)c3C#N)c2)CC1 [1-230] | 501 | 143
CC(=O)c1ccc(-c2ccn(CCC(C)C)c(=O)c2C#N)cc1 [1-238] | 3160 | 130
COC(=O)CCc1ccc(-c2ccn(CCC(C)C)c(=O)c2C#N)cc1 [1-239] | 794 | 120
CC(C)CCn1ccc(-c2ccc(CC(=O)N(C)C)cc2)c(C#N)c1=O [1-244] | 6310 | 122
CC(C)CCn1ccc(-c2ccc(C(=O)N(C)Cc3ccccc3)cc2)c(C#N)c1=O [1-245] | 794 | 135 to 140
CC(C)CCn1ccc(-c2ccc(C(=O)N3CCN(Cc4ccc(OC(F)(F)F)c(Cl)c4)CC3)cc2)c(C#N)c1=O [1-247] | 398 | 217
CC(C)CCn1ccc(-c2ccc3c(c2)CCO3)c(C#N)c1=O [1-251] | 1260 | 117
CC(C)CCn1ccc(-c2ccc3c(c2)OCO3)c(C#N)c1=O [1-252] | 6310 | 120 to 121
CC(C)CCn1ccc(-c2ccc(CC#N)cc2)c(C#N)c1=O [1-254] | 2510 | 122
CC(C)CCn1ccc(-c2ccc(C(C#N)c3ccn(CCC(C)C)c(=O)c3C#N)cc2)c(C#N)c1=O (stereo not drawn) [1-255] | 794 | 233
